Measurements reported in US20070054804A1, “Use of fungicides for disinfecting cereal seed” (BAYER CROPSCIENCE AKTIENGESELLSCHAFT, priority 2003, published 2007).

Test system: Fusarium nivale
Assay: Fusarium nivale test (wheat)/seed treatment
Format: in vivo
Settings: seed dressing of infected wheat seed, evaluated three weeks after sowing, 0% = control, 100% = no infection
Protocol: Fusarium nivale Test (Wheat)/Seed Treatment The active compounds or the active compound combination are/is applied using commercially available liquid seed dressings of the individual active compounds or the active compound combination. For seed dressing, the infected seed is shaken with the seed dressing in question in a closed plastic container for 3 minutes. For each test, in two seed trays in each case 100 wheat corns are sown at a depth of 3 cm in sand and covered with a layer of fine particulate clay. The seed trays are then placed in a greenhouse at a temperature of about 10° C. and a relative atmospheric humidity of 95% and exposed to light for 15 hours per day. Three weeks after sowing, the plants are evaluated for symptoms. The efficacy is expressed in %. 0% means an efficacy which corresponds to that of the control, whereas an efficacy of 100% means that no infection is observed.

| SMILES | Efficacy in % (5 g active compound per 100 kg of seed) [%] | Efficacy in % (3 g active compound per 100 kg of seed) [%] |
| --- | --- | --- |
| OC(Cc1ccccc1Cl)(Cn1nc[nH]c1=S)C1(Cl)CC1 (centres unmarked) [prothioconazole, 2-[2-(1-chlorocyclopropyl)-3-(2-chlorophenyl)-2-hydroxypropyl]-2,4-dihydro[1,2,4]-triazole-3-thione] | 57 | – |
| CC(C)(C)C(O)(CCc1ccc(Cl)cc1)Cn1cncn1 (centres unmarked) [tebuconazole] | – | 11 |
